Measurements reported in paper PMC12370890 (Nature Communications, 2025).

System: Tcie612
Test: GC-MS of hexane extract, Michaelis-Menten fit
Type: biochemical, Trichoderma citrinoviride
Details: 25 mM MgCl2, 50 mM Tris-HCl pH 7.5, 100 mM KCl, 5 mM DTT, 5 mM hydroxypropyl-β-cyclodextrin, 30 °C, 30 min

Km: 86.1 ± 8.19 µM
SMILES: CC(C)=CCC/C(C)=C/CC/C(C)=C/CC/C(C)=C/COP(=O)(O)OP(=O)(O)O [GGPP]
